Experimental data reported in ChEMBL document CHEMBL3272203, “Phosphorus-nitrogen compounds. 22. Synthesis and antitumor activity of arylsulfonylhydrazone analogues” (J Med Chem, 1978).

Assays:
[1] = system: Ehrlich; test: Antitumor activity against mouse Ehrlich ascites carcinoma cells allografted in mouse assessed as host survival time at 40 mg/kg administered qd for 6 days beginning 24 hrs after tumor implantation relative to control in presence of 8 mg/kg CuCl2; format: functional
[2] = system: Sarcoma-180; test: Antitumor activity against mouse Sarcoma 180 cells allografted in mouse assessed as host survival time at 100 mg/kg administered qd for 6 days beginning 24 hrs after tumor implantation relative to control; format: functional
[3] = Octanol-water partition coefficient, log P of the compound; format: physicochemical
[4] = Metal chelating activity of the compound assessed as Fe2+-complex formation by absorbance analysis; format: physicochemical
[5] = system: P388; test: Antitumor activity against mouse P388 cells allografted in mouse assessed as host survival time at 40 mg/kg administered qd for 9 days beginning 24 hrs after tumor implantation relative to control in presence of 8 mg/kg CuCl2; format: functional
[6] = system: P388; test: Antitumor activity against mouse P388 cells allografted in mouse assessed as host survival time at 100 mg/kg administered qd for 9 days beginning 24 hrs after tumor implantation relative to control; format: functional
[7] = system: Ehrlich; test: Antitumor activity against mouse Ehrlich ascites carcinoma cells allografted in mouse assessed as host survival time at 100 mg/kg administered qd for 6 days beginning 24 hrs after tumor implantation relative to control; format: functional
[8] = system: Sarcoma-180; test: Antitumor activity against mouse Sarcoma 180 cells allografted in mouse assessed as host survival time at 40 mg/kg administered qd for 6 days beginning 24 hrs after tumor implantation relative to control in presence of 8 mg/kg CuCl2; format: functional
[9] = Metal chelating activity of the compound assessed as Co2+-complex formation by absorbance analysis; format: physicochemical
[10] = system: P388; test: Antitumor activity against mouse P388 cells allografted in mouse assessed as host survival time at 50 mg/kg administered qd for 9 days beginning 24 hrs after tumor implantation relative to control in presence of 8 mg/kg CuCl2; format: functional
[11] = system: Sarcoma-180; test: Antitumor activity against mouse Sarcoma 180 cells allografted in mouse assessed as host survival time at 50 mg/kg administered qd for 6 days beginning 24 hrs after tumor implantation relative to control in presence of 8 mg/kg CuCl2; format: functional
[12] = system: Ehrlich; test: Antitumor activity against mouse Ehrlich ascites carcinoma cells allografted in mouse assessed as host survival time at 50 mg/kg administered qd for 6 days beginning 24 hrs after tumor implantation relative to control in presence of 8 mg/kg CuCl2; format: functional
[13] = Metal chelating activity of the compound assessed as cupric ion complex formation by absorbance analysis; format: physicochemical
[14] = Metal chelating activity of the compound assessed as cupric ion complex formation at drug:cupric chloride ratio of 2:1 by absorbance analysis; format: physicochemical
[15] = Metal chelating activity of the compound assessed as cupric ion complex formation at drug:cupric chloride ratio of 1:1 by absorbance analysis; format: physicochemical

Row | SMILES | T/C [1] [%] | T/C [2] [%] | logP [3] | Activity [4] | T/C [5] [%] | T/C [6] [%] | T/C [7] [%] | T/C [8] [%] | Activity [9] | T/C [10] [%] | T/C [11] [%] | T/C [12] [%] | Activity [13] | Activity [14] | Activity [15]
1 | [O-][n+]1ccccc1/C=N/NP(=S)(N/N=C/c1cccc[n+]1[O-])Oc1ccccc1 | 166 | 89 | 1.28 | Not Active | 89 | 103 | 123 | 85 | Not Active | – | – | – | – | – | –
2 | S=P(N/N=C/c1ccccn1)(N/N=C/c1ccccn1)c1ccccc1 | – | 81 | – | – | – | 108 | 190 | – | – | 95 | 87 | 150 | – | – | –
3 | CCOP(=O)(N/N=C/c1cccc[n+]1[O-])OCC | 98 | – | – | Not Active | 78 | 108 | 160 | – | Not Active | – | – | – | Not Active | – | –
4 | [O-][n+]1ccccc1/C=N/NP(=S)(Oc1ccccc1)Oc1ccccc1 | 204 | 93 | – | Not Active | 94 | 113 | 144 | 106 | Not Active | – | – | – | – | – | –
5 | O.O=P(O)(N/N=C/c1cccc[n+]1[O-])Oc1ccccc1 | 164 | 107 | -0.76 | Not Active | – | – | 118 | 87 | Active | – | – | – | – | Active | –
6 | O.O=P(O)(N/N=C/c1ccccn1)Oc1ccccc1 | 163 | 95 | – | Not Active | 99 | 103 | 115 | 79 | Active | – | – | – | – | – | Active
7 | S=P(N/N=C/c1ccccn1)(N/N=C/c1ccccn1)Oc1ccccc1 | 269 | 93 | 1.62 | – | 97 | 87 | 114 | 141 | – | – | – | – | – | – | –
8 | CCOP(=S)(N/N=C/c1cccc[n+]1[O-])OCC | 135 | 96 | – | Not Active | 73 | 111 | 108 | 126 | Not Active | – | – | – | – | – | –
9 | [O-][n+]1ccccc1/C=N/NP(=S)(N/N=C/c1cccc[n+]1[O-])c1ccccc1 | – | 79 | – | Not Active | – | 114 | 104 | – | Not Active | 87 | 106 | 204 | – | – | –
10 | O=P(N/N=C/c1ccccn1)(Oc1ccccc1)Oc1ccccc1 | – | – | – | – | 92 | 117 | – | – | – | – | – | – | – | Active | –
11 | O=P(N/N=C/c1cccc[n+]1[O-])(Oc1ccccc1)Oc1ccccc1 | – | – | – | – | – | 111 | – | – | – | 95 | – | – | – | – | –
12 | S=P(N/N=C/c1ccccn1)(Oc1ccccc1)Oc1ccccc1 | – | – | – | – | 94 | 102 | – | – | – | – | – | – | – | – | –
13 | [O-][n+]1ccccc1 | – | – | -1.69 | – | – | – | – | – | – | – | – | – | – | – | –
14 | O=P1(N(CCCl)CCCl)NCCCO1 (centres undefined) [CYCLOPHOSPHAMIDE ANHYDROUS] | – | – | 0.63 | – | – | – | – | – | – | – | – | – | – | – | –
